Values of other authors in article PMC4007625, “A phase I study of AST1306, a novel irreversible EGFR and HER2 kinase inhibitor, in patients with advanced solid tumors” (Journal of Hematology & Oncology, 2014).

Test system: advanced/metastatic gastric cancer
Design: method as in PMID 21415234
Conditions: single agent, advanced/metastatic gastric cancer patients; cited from earlier work

## CS(=O)(=O)CCNCc1ccc(-c2ccc3ncnc(Nc4ccc(OCc5cccc(F)c5)c(Cl)c4)c3c2)o1 [lapatinib]
  response rate: 9%
